Laboratory results published in US8580773B2, “Small-molecule inhibitors of the androgen receptor” (The Regents of the University of California, priority 2008, dated 2013).
Numbering of substitutions follows the chain as printed. “Also recorded” adds a separate entry of the source. Counter-ions that a name gives are not always drawn. Values belong to the compound of their own block, whether it stands above or below them.

Columns and labels:
prostate [1] = assay: Prostate weight in mice after four weeks of treatment; type: in vivo; conditions: male mice, 5 times per week for four weeks; BiC 100 mg/kg PO, PP 1 mg/kg IP, or the combination
Protocol: Animals were treated 5 times per week for four weeks. At the end of the study period, animals were sacrificed and prostate tissue weighed. After weighing, the tissue was divided in half for pathological and genetic studies. […] (FIG. 7).

human androgen receptor = biological target: T1, human androgen receptor (Homo sapiens, UniProt P10275); assay: Screen of 1040 FDA-approved drugs and natural products for AR antagonists (MMTV-luciferase transcription assay and C-AR-Y FRET conformation assays); type: cell-based; conditions: test compounds at 10 μM, 10 nM DHT, 24 hours; validated by dose-response
T1 construct: expressed in transfected cells; host or cells: HEK293 and LAPC4 stably expressing C-AR-Y; HEK293 transiently transfected with native AR
T1 sequence (P10275 1-920): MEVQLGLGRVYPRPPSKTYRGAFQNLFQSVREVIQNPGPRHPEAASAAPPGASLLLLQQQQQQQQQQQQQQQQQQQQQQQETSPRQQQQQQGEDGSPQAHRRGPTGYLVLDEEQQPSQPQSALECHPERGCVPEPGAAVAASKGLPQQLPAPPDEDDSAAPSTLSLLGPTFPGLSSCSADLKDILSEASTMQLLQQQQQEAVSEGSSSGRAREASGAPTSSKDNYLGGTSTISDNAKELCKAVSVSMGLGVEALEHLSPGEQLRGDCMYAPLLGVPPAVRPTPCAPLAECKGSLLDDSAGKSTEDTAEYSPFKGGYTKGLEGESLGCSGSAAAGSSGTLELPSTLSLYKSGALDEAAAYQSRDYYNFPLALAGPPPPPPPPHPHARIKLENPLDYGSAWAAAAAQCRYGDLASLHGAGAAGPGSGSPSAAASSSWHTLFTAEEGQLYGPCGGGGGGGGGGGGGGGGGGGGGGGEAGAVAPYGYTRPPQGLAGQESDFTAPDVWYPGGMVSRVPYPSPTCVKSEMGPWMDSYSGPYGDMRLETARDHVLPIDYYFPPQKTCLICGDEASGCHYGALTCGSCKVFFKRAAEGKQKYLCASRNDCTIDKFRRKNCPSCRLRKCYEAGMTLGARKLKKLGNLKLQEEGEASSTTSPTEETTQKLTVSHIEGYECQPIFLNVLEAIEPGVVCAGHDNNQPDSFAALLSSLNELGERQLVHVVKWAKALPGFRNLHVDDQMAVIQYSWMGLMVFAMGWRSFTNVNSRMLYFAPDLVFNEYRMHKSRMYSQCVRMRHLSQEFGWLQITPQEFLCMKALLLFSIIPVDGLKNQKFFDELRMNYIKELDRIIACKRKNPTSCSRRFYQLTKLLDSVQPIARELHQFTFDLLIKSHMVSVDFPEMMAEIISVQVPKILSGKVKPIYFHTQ
Protocol: A library assembled by the NINDS was screened. The library consisted of 1040 FDA-approved drugs and natural products. A basic strategy to select and compare compounds from each of the primary screens was established (FIG. 1).
The transcription assay was conducted by transfecting 10 cm plates of HEK293 cells with plasmids encoding MMTV-luciferase, SV40-renilla luciferase, and native AR. […] FRET is fluorescence resonance energy transfer between cyan and yellow fluorescent protein derivatives (CFP, YFP) that are fused to the amino and carboxyl termini of the human androgen receptor. When ligand activates the receptor, a conformational change takes place that brings the CFP and YFP into close proximity, thereby allowing FRET to occur. This spectroscopic change is detected using a fluorescence plate reader.
For the transcription assay, transfected cells were pooled before being plated into 96-well dishes with the test compounds at 10 μM. […] Cell and compound transfers were accomplished with a liquid handling robot. Cells were cultured for 24 hours in the presence of 10 nM DHT and the test compounds. After 24 hours, cells were either lysed by freeze-thaw (transcription assay), or fixed in 4% paraformaldehyde for reading on the FPR (FRET assays). Each compound was tested in duplicate in the initial screen.
The compounds were sorted on the basis of anti-androgen effects. […] This eliminated situations in which one test gave a strong response, and the replicate had none. […] For the FRET assays, toxic compounds were easily detected because of their effect on raw CFP and YFP signal, and compounds that reduced this signal below two standard deviations were eliminated.
The top 50 compounds identified in each primary assay were then tested in the other two assays.

AR = biological target: T2, AR (Homo sapiens, UniProt P10275, T878A); assay: DHT titration against inhibitor, PSA-luciferase reporter in LNCaP cells (competitive vs non-competitive); type: cell-based; conditions: moderate dose of inhibitor, DHT titrated
T2 construct: that each express endogenous AR; endogenous in cells; host or cells: LNCaP
T2 sequence (P10275 whole entry T878A): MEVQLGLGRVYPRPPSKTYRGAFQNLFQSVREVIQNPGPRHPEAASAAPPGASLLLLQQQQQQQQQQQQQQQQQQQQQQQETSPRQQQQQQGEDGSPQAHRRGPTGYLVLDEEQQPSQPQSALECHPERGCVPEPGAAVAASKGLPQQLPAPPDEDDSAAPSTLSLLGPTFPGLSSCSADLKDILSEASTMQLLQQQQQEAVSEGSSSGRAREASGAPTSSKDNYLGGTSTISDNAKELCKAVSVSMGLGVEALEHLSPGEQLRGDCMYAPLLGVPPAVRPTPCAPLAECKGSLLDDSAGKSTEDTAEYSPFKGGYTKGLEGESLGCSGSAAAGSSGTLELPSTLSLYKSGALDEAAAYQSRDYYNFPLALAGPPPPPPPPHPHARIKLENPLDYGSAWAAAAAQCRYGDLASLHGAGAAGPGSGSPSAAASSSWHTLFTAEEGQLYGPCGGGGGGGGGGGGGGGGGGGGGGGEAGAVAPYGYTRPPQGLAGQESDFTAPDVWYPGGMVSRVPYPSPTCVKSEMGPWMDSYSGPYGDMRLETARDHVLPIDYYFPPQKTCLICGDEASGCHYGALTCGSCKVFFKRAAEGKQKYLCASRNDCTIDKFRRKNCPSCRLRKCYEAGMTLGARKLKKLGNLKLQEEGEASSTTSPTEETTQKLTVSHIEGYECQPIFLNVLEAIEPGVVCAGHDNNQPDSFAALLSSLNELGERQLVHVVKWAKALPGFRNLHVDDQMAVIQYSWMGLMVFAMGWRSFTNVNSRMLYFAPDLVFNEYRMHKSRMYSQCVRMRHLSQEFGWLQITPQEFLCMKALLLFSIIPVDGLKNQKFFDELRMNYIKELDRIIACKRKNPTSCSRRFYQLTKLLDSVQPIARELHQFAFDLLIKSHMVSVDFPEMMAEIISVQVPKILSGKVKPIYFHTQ

HEK293 cells = assay: Cell proliferation (DNA content, DAPI) in control HEK293 cells; type: cell-based; conditions: PP 100 nM, HH 100 nM, BiC 1 μM
Source text: LN-AR cells were created by retroviral infection of a high-expressing AR vector into LNCaP cells, and proliferate independent of androgen in cell culture, unlike their parental line (Chen, C. D., et al., Molecular determinants of resistance to antiandrogen therapy. Nat Med, 2004. 10(1): p. 33-9). HEK293 cells were used as a control. Cells were transferred to charcoal-stripped media two days before they were split and plated in quadruplicate at a density of approximately 20,000 cells/well in 48-well plates. […] Media were changed every day, using a single preparation to ensure consistent compound concentrations. Proliferation was determined by measuring the DNA content of the cells in each well. Each day, the cells in four wells were fixed in 100% cold methanol, followed by staining for 5 min at RT with 0.2 ng/mL 4′,6-diamidino-2-phenylindole (DAPI) in PBS. The cells were washed once in PBS, then read on a fluorescence plate reader using 365/439 excitation/emission wavelengths. LAPC4 and LNCaP cells proliferated to a much greater degree in the presence of DHT, while LN-AR cells proliferated in the presence and absence of DHT.

[2] = test system: androgen-regulated genes in the prostate; assay: Quantitative PCR of androgen-regulated genes in mouse prostate, normalized to RPL19; type: in vivo; conditions: mice
Protocol: A cohort of mice were castrated as a positive control.
For quantitative PCR, RNA was isolated from mouse prostates and reverse-transcribed. The expression of several androgen-regulated genes, of which a subset is shown (FIG. 13), was determined by using QPCR and normalizing to the expression of the housekeeping gene RPL19.

native androgen receptor = biological target: T3, native androgen receptor (Homo sapiens, UniProt P10275); assay: PSA-luciferase reporter with CMV-renilla control in LAPC4 cells (THP); type: cell-based; conditions: LAPC4, DHT and increasing amounts of compound
T3 construct: that each express endogenous AR; endogenous in cells; host or cells: LAPC4
T3 sequence (P10275 1-920): T1 sequence (P10275 1-920)
Source text: LAPC4 cells, a prostate cancer cell line that expresses native androgen receptor, were transfected with a PSA-luciferase reporter, and a CMV-renilla luciferase control.

dorsal prostate = assay: Histology of mouse dorsal prostate after 5 weeks of treatment; type: in vivo; conditions: FVB male mice, THP or BiC alone, or combination
prostate [3] = assay: Prostate wet weight in FVB male mice after 5 weeks of treatment; type: in vivo
[4] = biological target: T4, AR with a mutation (T877A) (Homo sapiens, UniProt P10275, T878A); assay: PSA-luciferase reporter transcription assay in LNCaP cells; type: cell-based; conditions: 3 nM DHT
T4 construct: that each express endogenous AR; endogenous in cells; host or cells: LNCaP
T4 sequence (P10275 1-920 T878A): T1 sequence (P10275 1-920) with T878A
Protocol: Cells were transfected with two reporter plasmids, a PSA-luciferase construct (androgen responsive), and an SV40-renilla luciferase construct as an internal control. The following day, the cells were split and drugs added in the presence of 3 nM DHT. Luciferase production was measured the following day (Dual luciferase assay kit, Promega).
Synergism can be defined as a combination index of less than one, using the non-exclusive assumption described by Chou et al. (Chou, T. C. and P. Talalay, Quantitative analysis of dose-effect relationships: the combined effects of multiple drugs or enzyme inhibitors. Adv Enzyme Regul, 1984. 22: p. 27-55).

Compound: CC(O)(CS(=O)(=O)c1ccc(F)cc1)C(=O)Nc1ccc(C#N)c(C(F)(F)F)c1 (stereo not shown) [BiC, bicalutamide]
Reduction of prostate weight (prostate [1]): 35%

Compound: O=c1ccc2cc(O[C@@H]3O[C@H](CO)[C@@H](O)[C@H](O)[C@H]3O)c(O)cc2o1 [Esculin]
Anti-androgen activity in screen (human androgen receptor): previously unrecognized anti-androgen activity

Anti-androgen activity in screen (human androgen receptor): top hits
Compound: CC(C)(O)C(=O)Nc1ccc([N+](=O)[O-])c(C(F)(F)F)c1 [OH—F, hydroxy-flutamide, reference compound]
Mode of antagonism on DHT titration (AR): DHT overcame the inhibitory effect; also recorded: consistent with a competitive antagonist

Compound: Cc1cc(/C=C/c2ccc3cc(N(C)C)ccc3[n+]2C)c(C)n1-c1ccccc1 [PP, 6-Dimethylamino-2-[2-(2,5-dimethyl-1-phenyl-1H-pyrrol-3-yl)-vinyl]-1-methyl-quinolinium, pamoate salt, reference compound]
Non-specific growth inhibition (HEK293 cells): Neither compound exhibited non-specific growth inhibition

Compound: COc1cc2ccc(=O)oc2cc1O [Scopoletin]
Anti-androgen activity in screen (human androgen receptor): previously unrecognized anti-androgen activity

Compound: Cc1cc(/C=C/C2CCc3cc(N(C)C)ccc3N2C)c(C)n1-c1ccccc1 (stereo not shown) [THP, {2-[2-(2,5-Dimethyl-1-phenyl-1H-pyrrol-3-yl)-vinyl]-1-methyl-1,2,3,4-tetrahydro-quinolin-6-yl}-dimethyl-amine]
Expression of androgen-regulated genes in the prostate (QPCR) ([2]; 2 mg/kg THP): modest effects
Expression of androgen-regulated genes in the prostate (QPCR) ([2]; 20 mg/kg THP): significantly decreased the transcription of many androgen regulated genes
Inhibition of androgen receptor-mediated transcription (normalized luciferase activity) (native androgen receptor): strong inhibition of androgen receptor-mediated transcription
Atrophy of the dorsal prostate by histological examination (dorsal prostate): modest atrophy
Appearance of the prostate (prostate [3]; 20 mg/kg THP, 5 weeks): abnormal milky appearance of the prostate
Change in prostate wet weight (prostate [3]; 5 weeks daily M-F, 1 mg/kg PP, 100 mg/kg BiC, 20 mg/kg THP, or 2 mg/kg THP + 100 mg/kg BiC): did not reduce overall wet weight

Compound: Harman
IC50 [4]: 380 nM
